Test results as given in patent US20250108119A1, “NOVEL STEROID PAYLOADS, STEROID LINKERS, ADCs CONTAINING AND USE THEREOF” (IMMUNEXT, INC., priority 2021, published 2025).

Assays:
[1] = system: LPS stimulated human PBMCs; assay: LPS stimulated human PBMC, IL-1β and IL-6 ELISA; format: cell-based
Method in brief: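 Human PBMC (1-2 healthy donors), 150,000 cells/well, treated with test agents at 1,000 nM down to 1 nM or 0.2 nM, in duplicate. LPS at 1 ng/ml added immediately after free payload or 4 h after conjugates; IL-1β and IL-6 in supernatants measured by ELISA.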

[2] = system: FKBP5; assay: FKBP5 transcription in peritoneal resident macrophages (PRM) and spleen cells after in vivo treatment; set-up: species or system hVISTA mice; conditions: linker payloads as anti-VISTA conjugates; for FKBP5 induction in splenic cells (conclusions): day 1, 7, 14
[3] = system: peritoneal resident macrophages (PRM); assay: In vivo treatment/ex vivo PRM activation, TNFα and IL-6 in supernatant; set-up: species or system hVISTA mice; conditions: for controlling cytokine response in PRM when dosed 14 days early (conclusions) / potency in PRM cytokine model when dosed 7 days early (conclusions): linker/payloads as anti-VISTA conjugates; for preventing ex vivo induction of TNFα and IL-6 in PRM: Experiment 9: linker payloads as conjugates, 7 days post 0.2 mg/Kg of GC payload, supernatant 24h
Experimental: Based thereon we developed a model to allow us to evaluate long-term anti-inflammatory impact of ADC on specific target populations, such as PRMs. […] In the absence of GC treatment, after 2h PRMs become highly activated as shown by increases in cytokine production. […] The objective of these studies was to evaluate the efficacy and pharmacodynamic range of INX human VISTA antibodies conjugated to a glucocorticoid payload as compared to free Dex.
After euthanasia, mice were injected in the peritoneal cavity with 7 ml of PBS/0.5% BSA/2 mM EDTA. After a brief massage of the peritoneum, a small incision was performed and the peritoneal lavage collected. PRM were isolated using negative selection (Miltenyi kit, ref 130-110-434). Spleen were dissected and dissociated mechanically; monocytes were isolated using […] (Stem Cell, EasySep™ Mouse CD11b Positive Selection Kit II).
PRMs were resuspended in RPMI 1640 with 10% FBS, 10 mM Hepes, Penicillin/Streptomycin and glutamine and 100,000 cells were plated per well in a 96-well tissue culture plate. Supernatants were collected at 2 and 24h post plating and stored at −80° C. […]
• BioLegend (cat #430904) ELISA MAX Deluxe Set Mouse TNF-α • BioLegend (cat #431304) ELISA MAX Deluxe Set Mouse IL-6
ELISAs were conducted following the manufacturer's included protocol.

Structure (SMILES)	potency of conjugated linker payloads over INX J (conclusions) [1]	FKBP5 induction when dosed 14 days early (conclusions) [2]	FKBP5 induction in splenic cells (conclusions) [2]	controlling cytokine response in PRM when dosed 14 days early (conclusions) [3]	preventing ex vivo induction of TNFα and IL-6 in PRM [3]	potency in PRM cytokine model when dosed 7 days early (conclusions) [3]
C[C@]12C=CC(=O)C=C1CC[C@@H]1[C@@H]2[C@@H](O)C[C@@]2(C)[C@H]1C[C@H]1O[C@@H](c3ccc(OC4CC5(CC(NC(=O)[C@H](CCC(=O)O)NC(=O)CNC(=O)CBr)C5)C4)cc3)O[C@]12C(=O)CO (stereo partly drawn) [INX A4, (S)-4-(2-(2-bromoacetamido)acetamido)-5-((6-(4-((6aR,6bS,7S,8aS,8bS,10R,11aR,12aS,12bS)-7-hydroxy-8b-(2-hydroxyacetyl)-6a,8a-dimethyl-4-oxo-2,4,6a,6b,7,8,8a,8b,11a,12,12a,12b-dodecahydro-1H-naphtho[2′,1′:4,5]indeno[1,2-d][1,3]dioxol-10-yl)phenoxy)spiro[3.3]heptan-2-yl)amino)-5-oxopentanoic acid]	enhanced potency	still display significant potency when dosed 14 days early in regard to FKBP5 induction	only demonstrate significant induction at day 1, and 7	–	–	–
C[C@]12C=CC(=O)C=C1CC[C@@H]1[C@@H]2[C@@H](O)C[C@@]2(C)[C@H]1C[C@H]1O[C@@H](c3ccc(Cc4cccc(NC(=O)[C@H](CCC(=O)O)NC(=O)CNC(=O)CBr)c4)cc3)O[C@]12C(=O)COP(=O)(O)O [INX L]	–	–	only demonstrate significant induction at day 1, and 7	significant potency in controlling cytokine response in PRM when dosed 14 days early	–	–
C[C@]12C=CC(=O)C=C1[C@@H](F)C[C@H]1[C@@H]3C[C@H]4O[C@@H](c5ccc(CC67CC(NC(=O)[C@H](CCC(=O)O)NC(=O)CNC(=O)CBr)(C6)C7)cc5)O[C@@]4(C(=O)CO)[C@@]3(C)C[C@H](O)[C@@]12F [INX S, (S)-4-(2-(2-bromoacetamido)acetamido)-5-((3-(4-((2S,6aS,6bR,7S,8aS,8bS, 10R,11aR,12aS,12bS)-2,6b-difluoro-7-hydroxy-8b-(2-hydroxyacetyl)-6a,8a-dimethyl-4-oxo-2,4,6a,6b,7,8,8a,8b,11a,12,12a,12b-dodecahydro-1H-naphtho[2′,1′:4,5]indeno[1,2-d][1,3]dioxol-10-yl)benzyl)bicyclo[1.1.1]pentan-1-yl)amino)-5-oxopentanoic acid]	–	still display significant potency when dosed 14 days early in regard to FKBP5 induction	Significant FKBP5 induction is seen at day 1, 7, and 14 in splenic cells	significant potency in controlling cytokine response in PRM when dosed 14 days early	remarkable long-term potency in controlling cytokine responses	remarkably more potent than payloads INX P and INX R when dosed 7 days early
C[C@H](NC(=O)CBr)C(=O)N[C@@H](C)C(=O)NC12CC(Cc3ccc([C@@H]4O[C@@H]5C[C@H]6[C@@H]7CCC8=CC(=O)C=C[C@]8(C)[C@H]7[C@@H](O)C[C@]6(C)[C@]5(C(=O)CO)O4)cc3)(C1)C2 [INX R, (S)-2-(2-bromoacetamido)-N—((S)-1-((3-(4-((6aR,6bS,7S,8aS,8bS,10R,11aR, 12aS,12bS)-7-hydroxy-8b-(2-hydroxyacetyl)-6a,8a-dimethyl-4-oxo-2,4,6a,6b,7,8,8a,8b,11a,12,12a,12b-dodecahydro-1H-naphtho[2′,1′:4,5]indeno[1,2-d][1,3]dioxol-10-yl)benzyl)bicyclo[1.1.1]pentan-1-yl)amino)-1-oxopropan-2-yl) propanamide]	–	–	–	–	–	show similar potency when dosed 7 days early
C[C@]12C=CC(=O)C=C1CC[C@@H]1[C@@H]2[C@@H](O)C[C@@]2(C)[C@H]1C[C@H]1O[C@@H](c3ccc(CC45CC(NC(=O)[C@H](CCCCN)NC(=O)CNC(=O)CBr)(C4)C5)cc3)O[C@]12C(=O)CO [INX W, (S)-6-amino-2-(2-(2-bromoacetamido)acetamido)-N-(3-(4-((6aR,6bS,7S,8aS,8bS,10R,11aR,12aS,12bS)-7-hydroxy-8b-(2-hydroxyacetyl)-6a,8a-dimethyl-4-oxo-2,4,6a,6b,7,8,8a,8b,11a,12,12a,12b-dodecahydro-1H-naphtho[2′,1′:4,5]indeno[1,2-d][1,3]dioxol-10-yl)benzyl)bicycle[1.1.1]pentan-1-yl) hexanamide]	–	still display significant potency when dosed 14 days early in regard to FKBP5 induction	–	–	remarkable long-term potency in controlling cytokine responses	remarkably more potent than payloads INX P and INX R when dosed 7 days early
C[C@]12C=CC(=O)C=C1CC[C@@H]1[C@@H]2[C@@H](O)C[C@@]2(C)[C@H]1C[C@H]1O[C@@H](c3ccc(CC45CC(NC(=O)[C@H](CCC(=O)O)NC(=O)CNC(=O)CBr)(C4)C5)cc3)O[C@]12C(=O)COP(=O)(O)O [INX T, (S)-4-(2-(2-bromoacetamido)acetamido)-5-((3-(4-((6aR,6bS,7S,8aS,8bS,10R,11aR,12aS,12bS)-7-hydroxy-6a,8a-dimethyl-4-oxo-8b-(2-(phosphonooxy)acetyl)-2,4,6a,6b,7,8,8a,8b,11a,12,12a,12b-dodecahydro-1H-naphtho[2′,1′:4,5]indeno[1,2-d][1,3]dioxol-10-yl)benzyl)bicyclo[1.1.1]pentan-1-yl)amino)-5-oxopentanoic acid]	–	still display significant potency when dosed 14 days early in regard to FKBP5 induction	Significant FKBP5 induction is seen at day 1, 7, and 14 in splenic cells	significant potency in controlling cytokine response in PRM when dosed 14 days early	–	–
C[C@]12C=CC(=O)C=C1CC[C@@H]1[C@@H]2[C@@H](O)C[C@@]2(C)[C@H]1C[C@H]1O[C@@H](C34CC(Cc5cccc(NC(=O)[C@H](CCC(=O)O)NC(=O)CNC(=O)CBr)c5)(C3)C4)O[C@]12C(=O)CO [INX O, (S)-4-(2-(2-bromoacetamido)acetamido)-5-((3-((3-((6aR,6bS,7S,8aS,8bS,10R,11aR,12aS,12bS)-7-hydroxy-8b-(2-hydroxyacetyl)-6a,8a-dimethyl-4-oxo-2,4,6a,6b,7,8,8a,8b,11a,12,12a,12b-dodecahydro-1H-naphtho[2′,1′:4,5]indeno[1,2-d][1,3]dioxol-10-yl)bicyclo[1.1.1]pentan-1-yl)methyl)phenyl)amino)-5-oxopentanoic acid]	–	–	–	–	little and non-significant impact on the PRM cytokine response	very limited and non-significant potency when conjugated to INX201
